From PubChem BioAssay AID2393 (NMMLSC, 2010)
Active and inactive are the calls of the source.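 Rule for the calls: active = none, because compounds meeting the potency rule were filed inconclusive for hitting several proteins; inconclusive = EC50 under 20 µM with over 15% binding change; inactive = the rest.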

What was measured:
Assay in all cases: small GTPase panel, fluorescent GTP binding blockade – biochemical, Mg buffer, constant GTP, RhoA, Rac1, Cdc42, mechanism study for Ras-family GTPase inhibitor project, profiling panel (AID 2393);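 for EC50: EC50 marks half change in GTP binding and may reflect gain or loss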
Conditions in all cases: GST-GTPase beads, BODIPY-GTP binding, flow cytometry; for GTP binding remaining (% of DMSO): at 100 µM (top of the series)
[1] = target: Ras-related C3 botulinum toxin substrate 1 (Homo sapiens) (UniProt P63000)
[2] = target: Transforming protein RhoA (Homo sapiens) (UniProt P61586)
[3] = target: Cell division control protein 42 homolog (Homo sapiens) (UniProt P60953)

GTP binding remaining (% of DMSO) ([2]; RhoACT)	GTP binding remaining (% of DMSO) ([2]; RhoWT)	GTP binding remaining (% of DMSO) ([3]; Cdc42ACT)	GTP binding remaining (% of DMSO) ([3]; Cdc42WT)	EC50 ([2]; RhoWT)	EC50 ([3]; Cdc42ACT)	EC50 ([3]; Cdc42WT)	Structure (SMILES)	GTP binding remaining (% of DMSO) ([1]; Rac1ACT)	GTP binding remaining (% of DMSO) ([1]; Rac1WT)	EC50 ([1]; Rac1WT)	EC50 ([1]; Rac1ACT)
inactive	inactive	inactive	inactive				COc1ccc(-c2ccc(CCC(=O)N3CCN(c4cc(C)ccc4C)CC3)o2)cc1	inactive	inactive		
inactive		inactive	inactive	inactive			COc1ccc(-c2noc(CCC(=O)N3CCC(c4cc(C)ccc4C)CC3)n2)cc1	inactive		11.9 µM	
inactive	inactive	inactive	inactive				COc1ccc(C2CC(c3ccc(Br)cc3)=NN2c2ccc(S(N)(=O)=O)cc2)cc1 (stereo not drawn)	inactive	inactive		
inactive	inactive				2.73 µM	2.5 µM	COc1ccc(C2CC(c3ccccc3)=NN2c2ccc(S(N)(=O)=O)cc2)cc1 (stereo not drawn)		inactive		inactive
inactive	inactive				8.35 µM	7.7 µM	Cc1cccc(C2CC(c3ccccc3)=NN2c2ccc(S(N)(=O)=O)cc2)c1 (stereo not drawn)	inactive	inactive		
inactive	inactive	inactive	inactive				COc1ccc(-c2ccc(CCC(=O)N3CCN(c4cc(C)ccc4C)CC3)s2)cc1	inactive	inactive		
inactive	inactive	inactive	inactive				COc1ccc(C2CC(c3ccc(N(C)C)cc3)=NN2c2ccc(S(N)(=O)=O)cc2)cc1 (stereo not drawn)	inactive	inactive		
inactive	inactive	inactive				inactive	NS(=O)(=O)c1ccc(N2N=C(c3ccccc3)CC2c2ccccc2Cl)cc1 (stereo not drawn)	inactive	inactive		
